# Source: patent US7521447B2, “P38 inhibitors and methods of use thereof” (Array Biopharma Inc., priority 2003, dated 2009)
# Target: activated p38α enzyme (Homo sapiens, UniProt Q16539)
# Assay: p38 Biochemical Assay
# Design: key: An “active” compound is defined as a compound having an IC50 below 500 nM
# Conditions: 5 nM activated p38α, 1 uM ATF-2 substrate, 10 μM ATP
# Description: P38 activity was assayed at room temperature in a 100 μl reaction containing 5 nM activated p38α enzyme and 1 uM ATF-2 (Activating Transcription Factor 2 fusion protein) as the substrate in 25 mM HEPES (pH 7.4), 100 μM Vanadate, 1 mM DTT, 10 mM MgCl2 and 10 μM [[…]-^33P]-ATP (˜0.1 μCi P^33/reaction). The reaction was terminated after 30-40 minutes by adding 25% TCA, let stand for 5 minutes and then transferred directly to a GF-B membrane filter plate. The filter was washed twice for 30 seconds with 0.5% phosphoric acid using a Tomtec Mach III Automated Harvestor. After washing, the vacuum was continued for 30 seconds to dry the filter. Approximately 30 μl of scintillant was added per well to the filter plate and then read in a Liquid Scintillation Counter (Packard TopCount HTS).
# activated p38α enzyme, sequence (Q16539 whole entry): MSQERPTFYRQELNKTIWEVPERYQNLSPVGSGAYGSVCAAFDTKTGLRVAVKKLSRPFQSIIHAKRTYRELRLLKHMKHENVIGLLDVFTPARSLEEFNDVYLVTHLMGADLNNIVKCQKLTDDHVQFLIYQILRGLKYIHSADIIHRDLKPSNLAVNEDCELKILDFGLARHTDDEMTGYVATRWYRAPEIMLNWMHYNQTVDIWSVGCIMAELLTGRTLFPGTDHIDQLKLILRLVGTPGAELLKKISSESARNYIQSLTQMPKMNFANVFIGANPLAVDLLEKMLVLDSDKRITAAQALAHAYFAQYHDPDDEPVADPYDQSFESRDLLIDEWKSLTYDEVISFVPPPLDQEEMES
row,SMILES,p38 Inhibition IC50 (nM)
1,"COC(=O)C(CCN)NC(=O)c1cc2c(cnn2CC(C)C)cc1Oc1ccc(F)cc1 (centres unmarked) [Compound 1j-2, 4-amino-2-{[5-(4-fluorophenoxy)-1-isobutyl-1H-indazole-6-carbonyl]-amino}butyric acid methyl ester]",active
2,"COC(=O)C(CCN)NC(=O)c1cc2c(cnn2CC(F)(F)F)cc1Oc1ccc(F)cc1 (centres unmarked) [Compound 1j-4, 4-amino-2-{[5-(4-fluorophenoxy)-1-(2,2,2-trifluoroethyl)-1H-indazole-6-carbonyl]-amino}butyric acid methyl ester]",active
3,"CC(C)Cn1ncc2cc(Nc3ccc(F)cc3F)ccc21 [Compound 2h-1, (2,4-difluorophenyl)-(1-isobutyl-1H-indazol-5-yl)-amine]",active
4,"CC(C)Cn1ncc2cc(Nc3ccc(F)cc3)ccc21 [Compound 2h-2, (4-fluorophenyl)-(1-isobutyl-1H-indazol-5-yl)-amine]",active
5,"Cc1ccccc1Nc1ccc2c(cnn2CC(C)C)c1 [Compound 2h-10, (1-isobutyl-1H-indazol-5-yl)-O-tolyl-amine]",active
6,"CC(C)Cn1ncc2cc(C(O)c3ccc(Cl)cc3F)ccc21 (centres unmarked) [Compound 4f-7, (4-chloro-2-fluorophenyl)-(1-isobutyl-1H-indazol-5-yl)-methanol]",active
7,"CC(C)Cn1ncc2cc(C(O)c3ccc(F)cc3Cl)ccc21 (centres unmarked) [Compound 4f-8, (2-chloro4-fluorophenyl)-(1-isobutyl-1H-indazol-5-yl)-methanol]",active
8,"Cc1ccccc1C(O)c1ccc2c(cnn2CC(C)C)c1 (centres unmarked) [Compound 4f-10, (1-isobutyl-1H-indazol-5-yl)-O-tolyl methanol]",active
9,"CC(C)Cn1ncc2cc(C(=O)c3ccc(F)cc3Cl)ccc21 [Compound 5f-8, (2-chloro-4-fluorophenyl)-(1-isobutyl-1H-indazol-5-yl)-methanone]",active
10,"O=C(c1ccc2c(cnn2CC(F)(F)F)c1)c1ccc(F)cc1F [Compound 5f-11, (2,4-difluorophenyl)-[1-(2,2,2-trifluoro-ethyl)-1H-indazol-5-yl]-methanone]",active
11,"C=CCn1ncc2cc(C(=O)c3ccc(F)cc3F)ccc21 [Compound 5f-12, (1-allyl-1H-indazol-5-yl)-(2,4-difluorophenyl)-methanone]",active
12,"Cc1ccc(-n2nc(C(C)(C)C)cc2NC(=O)NCc2cccnc2Oc2ccc3c(cnn3C)c2)cc1 [Compound 6n, 1-(5-tert-butyl-2-p-tolyl-2H-pyrazol-3-yl)-3-[2-(1-methyl-1H-indazol-5-yloxy)-pyridin-3-ylmethyl]-urea]",active
13,"CCON=C(c1ccc(F)cc1)c1ccc2c(cnn2CC(C)C)c1 [Compound 7f-4, (4-fluorophenyl)-(1-isobutyl-1H-indazol-5-yl)-methanone O-ethyl-oxime]",active
14,"CC(C)Cn1ncc2cc(C(=NOCc3ccccc3)c3ccc(F)cc3F)ccc21 [Compound 7f-7, (2,4-difluorophenyl)-(1-isobutyl-1H-indazol-5-yl)-methanone O-benzyl-oxime]",active
15,"CON=C(c1ccc(F)cc1)c1ccc2c(cnn2CC(C)C)c1 [Compound 7f-9, (4-fluorophenyl)-(1-isobutyl-1H-indazol-5-yl)-methanone O-methyl-oxime]",active
16,"ON=C(c1ccc2c(cnn2CC(F)(F)F)c1)c1ccc(F)cc1F [Compound 7f-12, (2,4-difluorophenyl)-[1-(2,2,2-trifluoroethyl)-1H-indazol-5-yl]-methanone oxime]",active
17,"CON=C(c1ccc2c(cnn2CC(F)(F)F)c1)c1ccc(F)cc1F [Compound 7f-13, (2,4-difluorophenyl)-[1-(2,2,2-trifluoro-ethyl)-1H-indazol-5-yl]-methanone O-methyl oxime]",active
18,"CS(=O)(=O)n1ncc2cc(C(=NO)c3ccc(F)cc3F)ccc21 [Compound 7f-14, (2,4-difluorophenyl)-(1-methanesulfonyl-1H-indazol-5-yl)methanone oxime]",active
19,"CON=C(c1ccc2c(cnn2S(C)(=O)=O)c1)c1ccc(F)cc1F [Compound 7f-15, (2,4-difluorophenyl)-(1-methanesulfonyl-1H-indazol-5-yl)-methanone O-methyl oxime]",active
20,"C=CCn1ncc2cc(C(=NO)c3ccc(F)cc3F)ccc21 [Compound 7f-17, (1-allyl-1H-indazol-5-yl)-(2,4-difluorophenyl)-methanone oxime]",active
21,"Cc1ccc(-n2nc(C(C)(C)C)cc2NC(=O)NCc2cc(F)ccc2Oc2ccc3c(cnn3C)c2)cc1 [Compound 7t-1, 1-(5-tert-butyl-2-p-tolyl-2H-pyrazol-3-yl)-3-[5-fluoro-2-(1-methyl-1H-indazol-5-yloxy)-benzyl]urea]",active
22,"Cc1ccc(-n2nc(C(C)(C)C)cc2NC(=O)NCc2cc(F)ccc2Nc2ccc3c(cnn3CC3CCC3)c2)cc1 [Compound 9q-2, 1-(5-tert-butyl-2-p-tolyl-2H-pyrazol-3-yl)-3-[2-(1-cyclobutylmethyl-1H-indazol-5-ylamino)-5-fluorobenzyl]-urea]",active
23,"CC(C)Cn1ncc2cc(Oc3ccc(F)cc3)c(C(N)=O)cc21 [Compound 11g-1, 5-(4-fluorophenoxy)-1-isobutyl-1H-indazole-6-carboxylic acid amide]",active
24,"CN(C)CCNC(=O)c1cc2c(cnn2CC(F)(F)F)cc1Oc1ccc(F)cc1 [Compound 11g-14, 5-(4-fluorophenoxy)-1-(2,2,2-trifluoroethyl)-1H-indazole-6-carboxylic acid (2-dimethylaminoethyl) amide]",active
25,"CC(C)Cn1ncc2cc(Oc3ccccc3CC(=O)Nc3ccc(N4CCOCC4)cc3)ccc21 [Compound 16p, 2-[2-(1-isobutyl-1H-indazol-5-yloxy)-phenyl]-N-(4-morpholin-4-yl-phenyl)-acetamide]",active
26,"Cc1ccc(-n2nc(C(C)(C)C)cc2NC(=O)N(C)Cc2cc(F)ccc2Oc2ccc3c(cnn3C)c2)cc1 [Compound 28t, 3-(5-tert-butyl-2-p-tolyl-2H-pyrazol-3-yl)-1-[5-fluoro-2-(1-methyl-1H-indazol-5-yloxy)-benzyl]-1-methylurea]",active

# Tested on: LPS-induced TNF-α secretion from human peripheral blood mononuclear cells (PBMC)
# Assay: PBMC Assay: inhibition of LPS-induced TNF-α secretion
# Type: cell-based
# Design: key: An “active” compound is defined as a compound having an IC50 below 500 nM
# Conditions: LPS-stimulated human PBMC, TNF-α ELISA
# Description: The ability of compounds of this invention to inhibit TNF-α production was assessed by using human peripheral blood mononuclear cells (“PBMC”) which synthesize and secrete TNF-α when stimulated with lipopolysaccharide.
# Compound test solutions were made by making 5 fold serial dilutions in DMSO, which dilutions were then diluted to 5× stocks by diluting with MEM, 2% heat inactivated fetal bovine serum (“FBS”), 20 mM HEPES, 2 mM L-glutamine, and 1% penicillin/streptomycin.
# PBMC's were isolated from human blood as follows. Whole blood samples were collected from human volunteers into Vacutainer™ CPT from Becton Dickinson. Tubes were mixed and centrifuged at room temperature (18-25° C.) in a horizontal rotor for a minimum of 15 minutes at 1500-1800 RCF (relative centrifugal force). For each donor, the buffy coat layers were pooled into a single tube and washed twice with phosphate buffered saline (“PBS”). The cell pellet was resuspended in MEM, 2% heat inactivated fetal bovine serum (“FBS”), 20 mM HEPES, 2 mM L-glutamine, and 1% penicillin/streptomycin. Total cell number was determined using a hemocytometer and the cell suspension was adjusted to 2×10^6 cells/mL.
# 0.1 mL of cell suspension was added to each well of a 96-well cell culture plate. 30 μL of a compound test solution was added, and the cells were incubated in a 37° C./5% CO2 incubator for 1 hour. 20 μL of 7.5 ng/mL lipopolysaccharide (LPS E. Coli K-235) was then added to each well, and the cells were returned to the 37° C./5% CO2 incubator for 16-20 hours. The cells were centrifuged for 15 minutes at 1100 RCF. Approximately 0.12 mL of the supernatant was transferred into a clean 96 well polypropylene plate. The samples were either assayed immediately or were stored at −80° C. until ready for assay. TNF-α levels were determined in each sample using a human TNF-α ELISA assay such as that described below.
# TNF-α levels were determined using the following assay. TNF-alpha antibody coated plates were prepared by adding 150 μL of 2 μg/mL anti-TNF-α purified mouse monoclonal IgG in Carbonate-Bicarbonate buffer (BupH™ Carbonate-Bicarbonate Buffer Pack) to wells of a 96-well Immulon 4 plate (Immulon 4 ELISA Flat Bottom Plate; Dynex, catalog number 011-010-3855) and incubated overnight at 2-8° C. Coating solution was removed and 200 μL of “blocking buffer” (20 mM HEPES pH 7.4, 150 mM NaCl, 2% BSA) was added and plates were stored 2-8° C. until ready to use. A ten-point recombinant human TNF-α standard curve was prepared by a 1:2 serial dilution in “sample diluent” (20 mM HEPES, pH 7.4, 150 mM NaCl, 2 mM MgCl2, 1% BSA) with a top concentration of 6000 pg/mL.
# Blocking solution was removed from TNF-α ELISA plates by washing five times with 300 μL of “wash buffer” (20 mM HEPES, pH 7.4, 150 mM NaCl, 2 mM MgCl2, 0.02% Tween-20). 50 μL of “sample diluent” was added to all wells, and then either 50 μL of a TNF-α standard curve solution or test compound supernatant was added to all wells. The plate was incubated at room temperature for one hour with shaking (300 rpm). The plate was washed wash five times with 300 μL “wash buffer”. 100 μL of 0.2 μg/mL biotinylated goat anti-human TNF-α in “antibody diluent” (20 mM HEPES, pH 7.4, 150 mM NaCl, 2 mM MgCl2, 1% BSA, 0.02% Tween-20) was added per well, and the plate was incubated at room temperature for one hour with shaking (300 rpm). The plate was washed wash five times with 300 μL “wash buffer” per well. 100 μL of 0.02 μg/mL streptavidin alkaline phosphatase in “antibody diluent” was added per well, and the plate was incubated at room temperature for one hour with shaking (300 rpm). The plate was washed wash five times with 300 μL wash buffer per well. 200 μL of 1 mg/mL pNPP (p-nitrophenyl phosphate) in diethanolamine buffer with 0.5 mM MgCl2 was added per well, and the plate was incubated for 30 to 45 minutes at room temperature with shaking (300 rpm). […]
row,SMILES,PBMC IC50 (nM)
1,"CC(C)Cn1ncc2cc(Nc3ccc(F)cc3F)ccc21 [Compound 2h-1, (2,4-difluorophenyl)-(1-isobutyl-1H-indazol-5-yl)-amine]",active
2,"CC(C)Cn1ncc2cc(Nc3ccc(F)cc3)ccc21 [Compound 2h-2, (4-fluorophenyl)-(1-isobutyl-1H-indazol-5-yl)-amine]",active
3,"Cc1ccccc1Nc1ccc2c(cnn2CC(C)C)c1 [Compound 2h-10, (1-isobutyl-1H-indazol-5-yl)-O-tolyl-amine]",active
